Assay results as given in ChEMBL document CHEMBL1157539, “Thousands of chemical starting points for antimalarial lead identification” (Nature, 2010).

system: Plasmodium falciparum; assay: GSK_TCMDC: Inhibition of Plasmodium falciparum 3D7 in whole erythrocytes, using parasite LDH activity as an index of growth.; assay type: functional, organism-based; details: Plasmodium falciparum, 3D7

**Q.** How did the XC50 turn out when COc1ccc(C(=O)C2CC2CN2CC=C(c3c(C)[nH]c4ccccc34)CC2)cc1 (centres undefined) was run?
**A.** 304 nM

**Q.** For CCCCCCNC(=N)c1ccc(OCCCCCOc2ccc(C(=N)NCCCCCC)cc2)cc1, which XC50 is on record?
**A.** 309 nM

**Q.** Cc1nc(-c2nc(NCCc3c(C)noc3C)ncc2-c2ccsc2)sc1C was tested. Which XC50 did it give?
**A.** 256 nM

**Q.** Which XC50 does the source give for O=C(Nc1cccc(C(F)(F)F)c1)Nc1cc(F)c(F)cc1Cl here?
**A.** 1960 nM

**Q.** CN(C)c1nc(NCc2ccccc2)nc(N/N=C/c2cc([N+](=O)[O-])ccc2O)n1 was tested. Which XC50 did it give?
**A.** 685 nM

**Q.** How did the XC50 turn out when COC(=O)CCn1c(C2CCN(CC3CCC(NC(=O)/C=C/c4ccc(Cl)c(Cl)c4)CC3)CC2)nc2ccccc21 (centres undefined) was run?
**A.** 951 nM

**Q.** Which XC50 does the source give for COc1cc(C(=O)N2N=C(c3c(-c4ccccc4)c4cc(Br)ccc4[nH]c3=O)CC2c2cccc([N+](=O)[O-])c2)cc(OC)c1OC (centres undefined) here?
**A.** 943 nM

**Q.** CCC(C(C)C)n1ccc2c3c(N)nc(N)nc3ccc21 (centres undefined) was tested. Which XC50 did it give?
**A.** 3.2 nM

**Q.** CC(C)COc1ccc(C(O)C(CN2CCCCC2)c2ccccc2)cc1 (centres undefined) was tested. Which XC50 did it give?
**A.** 923 nM

**Q.** For CCCN(Cc1nnc(-c2cccs2)o1)C(=O)C1COc2ccccc2O1 (centres undefined), which XC50 is on record?
**A.** 850 nM

**Q.** How did the XC50 turn out when CCCCC(=O)Nc1nonc1-c1ccc(OCC)c(OCC)c1 was run?
**A.** 912 nM

**Q.** Which XC50 does the source give for CCCN(CCC)CCOc1ccc(C(O)(C#CC(O)(c2ccc(OCCN(CCC)CCC)cc2)c2cccc(Cl)c2)c2cccc(Cl)c2)cc1 (centres undefined) here?
**A.** 790 nM

**Q.** For CC(=O)OC[C@H]1O[C@@H](C#Cc2ccccc2)[C@H](OC(C)=O)[C@@H](OC(C)=O)[C@@H]1OC(C)=O, which XC50 is on record?
**A.** 283 nM

**Q.** For CS(=O)(=O)Nc1ccc2[nH]cc(C3CC4CCC(C3)N4CC3CCC(NC(=O)/C=C/c4ccc(Cl)c(Cl)c4)CC3)c2c1 (centres undefined), which XC50 is on record?
**A.** 872 nM

**Q.** How did the XC50 turn out when COc1cccc(-c2nn(C)c3sc(C(=O)Nc4cccnc4)cc23)c1 was run?
**A.** 948 nM

**Q.** How did the XC50 turn out when COc1ccccc1C1CN(CCNC(=O)c2nc(C)c[nH]2)Cc2ccccc2O1 (centres undefined) was run?
**A.** 797 nM

**Q.** Which XC50 does the source give for Cc1cccc2nc(-c3ccc(-c4cccc(NCc5cn6cccnc6n5)c4)cc3)[nH]c12 here?
**A.** 787 nM

**Q.** How did the XC50 turn out when CCCC(C)NC(=O)/C=C/c1ccccc1-c1cccc(OC)c1 (centres undefined) was run?
**A.** 1250 nM

**Q.** For CN(/N=C/C=C/c1ccc(Cl)cc1)c1nc(NCCc2ccc(O)cc2)nc(N2CCNCC2)n1, which XC50 is on record?
**A.** 873 nM

**Q.** For CCCC(C)Nc1nc(C)cc(NCCC(=O)Nc2ccc(OC)cc2)n1 (centres undefined), which XC50 is on record?
**A.** 1380 nM

**Q.** CCN(CC)CCCN(C(=O)Nc1c(Cl)cncc1Cl)c1nc(-c2ccc(F)cc2)cs1 was tested. Which XC50 did it give?
**A.** 241 nM

**Q.** Cc1sc(NC(=O)Cc2cccc(C(F)(F)F)c2)nc1-c1cccc(Cl)c1 was tested. Which XC50 did it give?
**A.** 470 nM

**Q.** With CN(C)CCOc1ccc(N2CCN(CCCCNC(=O)c3ccc(NC(=O)c4ccc(Cl)cc4)cc3)CC2)cc1 as the compound, how does the XC50 read?
**A.** 826 nM

**Q.** For COC(=O)c1ccc(Nc2nccc(Nc3ccc(Oc4ccccc4)cc3)n2)cc1, which XC50 is on record?
**A.** 1020 nM

**Q.** For CCCc1cc([C@@H](O)[C@@H]2C[C@@H]3CCN2C[C@@H]3CC)c2ccccc2n1, which XC50 is on record?
**A.** 433 nM

**Q.** CN(C)C(CNC(=O)c1cc(-c2ccncc2)c(-c2cc3ccccc3[nH]2)o1)c1ccccc1 (centres undefined) was tested. Which XC50 did it give?
**A.** 841 nM

**Q.** COc1cccc(OC)c1CN1CCC(N(C)CCCCCCCCN2CCC(OC(=O)Nc3ccccc3-c3ccccc3)CC2)CC1 was tested. Which XC50 did it give?
**A.** 458 nM

**Q.** O=C(Nc1ccc(Cl)cc1)c1ccc(CN2CCCN(Cc3cccc(F)c3)CC2)cc1 was tested. Which XC50 did it give?
**A.** 1030 nM

**Q.** CC(C)c1cc2c(ccc3nc(N)nc(N)c32)o1 was tested. Which XC50 did it give?
**A.** 85.7 nM

**Q.** Which XC50 does the source give for COc1ccccc1C1CCN(C2CCC(NC(=O)/C=C/c3cc(F)cc(F)c3)CC2)CC1 (centres undefined) here?
**A.** 1110 nM

**Q.** Which XC50 does the source give for c1ccc(CCNc2ccnc(Nc3ccc4cn[nH]c4c3)n2)cc1 here?
**A.** 467 nM

**Q.** Which XC50 does the source give for COc1ccc2nccc([C@@H](O)CN3CCC(NCc4nc5c(OCc6ccccc6)cccc5[nH]4)CC3)c2c1 here?
**A.** 178 nM

**Q.** How did the XC50 turn out when Oc1ccc(-c2nc(-c3ccc4oc5ccc(-c6[nH]c(-c7ccc(O)cc7)nc6-c6ccccc6)cc5c4c3)c(-c3ccccc3)[nH]2)cc1 was run?
**A.** 1110 nM

**Q.** Nc1nc(N)c2cc3ccc(OCc4ccccc4)cc3nc2n1 was tested. Which XC50 did it give?
**A.** 320 nM

**Q.** For O=C(Nc1ccccc1Br)c1cn(-c2ccccc2)nc1-c1cccc([N+](=O)[O-])c1, which XC50 is on record?
**A.** 1320 nM

**Q.** How did the XC50 turn out when Nc1c(Cl)cc(C(O)CNCCCCCCOCCC=C2CCOCC2)cc1Cl (centres undefined) was run?
**A.** 634 nM

**Q.** With Clc1ccc(-c2[nH]c3ccccc3c2CN2CCC(N3CCCCC3)CC2)cc1 as the compound, how does the XC50 read?
**A.** 1060 nM

**Q.** With Cc1ccc(-c2ccc3c(c2)C=C(C(=O)NC2CCN(CCNC(=O)c4cccc(C(F)(F)F)c4)CC2)CCC3)cc1 as the compound, how does the XC50 read?
**A.** 512 nM

**Q.** How did the XC50 turn out when CN(Cc1cccc(O)c1)C1CCCN(c2cc(NC(=O)c3ccc(F)cc3)ccn2)C1 (centres undefined) was run?
**A.** 1070 nM

**Q.** Which XC50 does the source give for CCOc1ccc(CNCCCCCCNCc2ccc(OCC)c3ccccc23)c2ccccc12 here?
**A.** 447 nM

**Q.** How did the XC50 turn out when COc1ccc(C2=CCN(c3ccc(Cl)c(Cl)c3)C2=O)cc1OCCN1CCCCC1 was run?
**A.** 784 nM

**Q.** Which XC50 does the source give for O=C(O)c1cc(OCC(O)COc2ccc(O)c(C(=O)O)c2)ccc1O here?
**A.** 227 nM

**Q.** COc1ccc(CNC2CCN(C)CC2)cc1-c1cccc(S(=O)(=O)NCc2ccccc2)c1 was tested. Which XC50 did it give?
**A.** 723 nM

**Q.** How did the XC50 turn out when O=C(Nc1ccc(-c2csc(-c3nc4ccccc4[nH]3)c2)cc1)Nc1ccsc1 was run?
**A.** 552 nM

**Q.** CCN(CC)/C(=N\CCCCCC/N=C(\NC(=N)c1ccc(Cl)cc1)N(CC)CC)NC(=N)c1ccc(Cl)cc1 was tested. Which XC50 did it give?
**A.** 381 nM

**Q.** With O=C(NC1CCN(c2ccnc3cc(Cl)ccc23)C1)c1cccc(F)c1 (centres undefined) as the compound, how does the XC50 read?
**A.** 179 nM

**Q.** How did the XC50 turn out when COc1cccc(C=NNc2cc(C)nc3c(OC)cccc23)c1 was run?
**A.** 578 nM

**Q.** Which XC50 does the source give for COc1ccc2nccc(NC(=O)N3CCC(NCCOc4cc(F)cc(F)c4)CC3)c2n1 here?
**A.** 770 nM

**Q.** How did the XC50 turn out when COc1cc(NCCCNC(=O)c2cn(Cc3ccccc3)c3ccccc23)nc2ccccc12 was run?
**A.** 868 nM

**Q.** Which XC50 does the source give for CS(=O)(=O)CCNC(=O)c1ccc(-c2cc3c(Nc4ccc5c(cnn5Cc5ccccc5)c4)ncnc3cn2)o1 here?
**A.** 995 nM

**Q.** For c1ccc(CSC2=NNC(c3ccccn3)S2)cc1 (centres undefined), which XC50 is on record?
**A.** 1480 nM

**Q.** O=C(Nc1cccc(-c2cccc(-c3nc4cc(C(F)(F)F)ccc4[nH]3)c2)c1)c1cccnc1 was tested. Which XC50 did it give?
**A.** 404 nM

**Q.** How did the XC50 turn out when CNC(=O)c1ccccc1Nc1cc(Nc2cc(OC)ccn2)ncc1Cl was run?
**A.** 930 nM

**Q.** How did the XC50 turn out when Cc1ccccc1C1CCN(C2CCC(NC(=O)/C=C/c3ccc(C(F)(F)F)cc3)CC2)CC1 (centres undefined) was run?
**A.** 1040 nM

**Q.** With O=C(Nc1cc(Cl)c(Cl)cc1NC(=O)c1cccc(-c2ccccc2)c1O)c1cccc(-c2ccccc2)c1O as the compound, how does the XC50 read?
**A.** 505 nM

**Q.** Which XC50 does the source give for O=C(/C=C/c1ccc(Cl)c(Cl)c1)NCCCCCN1CCC(NC(=O)NC2CCCC2)CC1 here?
**A.** 631 nM

**Q.** For CC(C)c1ccc(NC(=O)c2ccc(CN3CCCN(CC4CCCCC4)CC3)cc2)cc1, which XC50 is on record?
**A.** 615 nM

**Q.** With CN1CCC[C@@H](Oc2cc3c(cc2Br)CCN3C(=O)Nc2ccc(-c3ccncc3)c(Cl)c2)C1 as the compound, how does the XC50 read?
**A.** 624 nM

**Q.** Cc1cc(=O)c(-c2ccc(Oc3ccc(Cl)cc3Cl)cc2)c(C)[nH]1 was tested. Which XC50 did it give?
**A.** 841 nM

**Q.** Cc1sc(C)c(C(F)(F)F)c1CNCCCNc1cc(=O)c2ccccc2[nH]1 was tested. Which XC50 did it give?
**A.** 1100 nM

**Q.** O=[N+]([O-])c1cccc(CNC2CCN(Cc3ccc(C(F)(F)F)cc3)CC2)c1 was tested. Which XC50 did it give?
**A.** 736 nM

**Q.** CN(CC(=O)Nc1ccc(F)cc1)C(=O)c1ccc(-c2ccc(F)cc2)o1 was tested. Which XC50 did it give?
**A.** 934 nM

**Q.** With Cc1cccc(CNc2nc(C)cc(N[C@@H](CC(C)C)C(=O)NCc3cccc(F)c3)n2)c1 as the compound, how does the XC50 read?
**A.** 1180 nM

**Q.** For CC[C@H](NC(=O)c1c(CN2CCC(N3CCCCC3)CC2)c(-c2ccccc2)nc2c(Cl)c(O)ccc12)c1ccccc1, which XC50 is on record?
**A.** 734 nM

**Q.** CC(=O)N(C)C1CCN(Cc2ccc(-c3ccc(-c4nc5cc(F)ccc5[nH]4)s3)cc2)C1 (centres undefined) was tested. Which XC50 did it give?
**A.** 971 nM

**Q.** O=C(Nc1ccc(OC2CCN(Cc3ccc(F)cc3)CC2)c(Cl)c1)c1ccc(F)cc1 was tested. Which XC50 did it give?
**A.** 188 nM

**Q.** N#Cc1ccc(-c2ccc(C(=O)NC3CCN(CCN4CCc5c(cccc5C(F)(F)F)C4)CC3)cc2)cc1 was tested. Which XC50 did it give?
**A.** 703 nM

**Q.** Which XC50 does the source give for COc1ccc2nccc([C@@H](O)CN3CCC(NCc4nc5cc(F)c(F)cc5[nH]4)CC3)c2c1 here?
**A.** 533 nM

**Q.** O=C(Nc1ccc(OC2CCN(Cc3ccc(F)cc3)C2)cc1)c1ccco1 (centres undefined) was tested. Which XC50 did it give?
**A.** 1040 nM
